Results taken from patent US20110262457A1, “MODULATION OF THE IMMUNE RESPONSE” (priority 2008, published 2011).
Entries after “also recorded” stand apart in the source; their conditions may differ.

How the values were obtained:
[1] = test system: T cells; assay: Th17 differentiation of T cells with antibodies to CD3 and CD28, TGF-beta and IL-21; IL-17 by real time PCR; format: cell-based; details: 100 nM, compared with FICZ, FIG. 9
Method: FIG. 9 is a bar graph T cells differentiation into Th17 cells by in vitro activation with antibodies to CD3 and CD28 in the presence of TGF-beta and IL-21, in the presence of or not of showing beta-naphthoflavone (bNF) or FICZ (100 nM). IL-17 production was measured by real time PCR.
Briefly, T cells were differentiated into Th17 cells by in vitro activation with antibodies to CD3 and CD28 in the presence of TGF-beta and IL-21 as described (Nature 2008; 454(7202):350-2), in the presence or not of bNF or FICZ (100 nM). IL-17 production was measured by real time PCR.

[2] = test system: naive T cells; assay: In vitro TH17 differentiation of naive T cells with TGFβ1 and IL-6 (with or without IL-23); format: cell-based
Excerpt: (§1) FIG. 1A is a set of three FACS plots showing conversion of CD4^+Foxp3:GFP^− T cells into CD4^+Foxp3:GFP^+ Treg by stimulation with antibodies to CD3 and CD28 in the presence of TGFb1 with or without FICZ; FIG. 1b; FIG. 1B presents the data in bar graph format. FIG. 1C is a bar graph showing AHR expression in naïve T cells differentiated in vitro into TH1, TH2 or TH17 cells for four days (mean+s.d. of triplicates normalized to actin expression). FIG. 1D is a bar graph showing AHR expression in naïve T cells differentiated in vitro into TH17 for four days with the indicated cytokines (mean+s.d. of triplicates normalized to actin expression). FIG. 1E is a bar graph showing RORγt expression in naïve T cells differentiated into TH17 for four days with TGFβ1 and IL-6 alone or in combination with FICZ (mean+s.d. of triplicates normalized to actin expression). FIG. 1F is a set of nine FACS plots of frequency of IL-17^+ T cells differentiated with TGFβ1 and IL-6 alone or in combination with IL-23 and/or FICZ for four days. FIG. 1G is a bar graph showing IL-17 and FIG. 1H is a pair of bar graphs showing IL-21 (left) and IL-22 (right) levels in supernatants of cultures prepared as in 1E, as measured by ELISA after 4 days of differentiation into.
Next, the effect of AHR activation by FICZ on in vitro TH17 differentiation was investigated using the TH17 transcription factor RORyt as a marker of TH17 differentiation.

[3] = test system: CD4+Foxp3:GFP- T cells; assay: Conversion of CD4+Foxp3:GFP- T cells into Treg with antibodies to CD3 and CD28 and TGFb1; format: cell-based; details: in vitro, anti-CD3/CD28, TGFβ1, FIGS. 1A, 1B
Excerpt: as §1, with “into. […]” for “into.”

[4] = test system: EAE mice; assay: EAE model (MOG35-55 peptide in CFA), FICZ treatment; format: in vivo
Method: FIG. 2A is a line graph showing development of EAE on FICZ^− or control-treated mice (mean EAE score+s.e.m.)
FIG. 2B is a pair of bar graphs showing cytokine secretion (pg/ml) triggered by MOG35-55 in splenocytes taken from FICZ or control-treated mice; left, IFNgamma, right, IL-17.
FIGS. 2C-2E are each pairs of FACS plots showing the frequency of IFNγ, (2C), IL-17 (2D) or Foxp3 (2E) in splenocytes from FICZ or control-treated mice.
The effects of FICZ were evaluated in vivo using the EAE model described in PCT International Patent Application NO. PCT/US2008/083016, and U.S. Provisional Patent Application Ser. No. 60/989,309, filed on Nov. 20, 2007.
Mice were treated with PBS (control) or […], immunized with MOG35-55 peptide in CFA and monitored for EAE development.

[5] = test system: Hep3b cells; assay: In vivo model of hepatocellular carcinoma (Hep3b cells in athymic nude mouse reconstituted with splenocytes)
Method: FIGS. 3A and 3B are bar graphs illustrating AFP levels in HCC tumor models treated with FICZ (3A) or FICZ plus HBSAg (3B).
In this example the effects of FICZ administration on Hepatocellular Carcinoma were evaluated in a mouse model of cancer.
The present study used athymic nude mouse (N=7), a type of laboratory mouse that is hairless, lacks a normal thymus gland, and has a defective immune system because of a genetic mutation.
100 ug of frozen FICZ (BIOMOL International, Plymouth Meeting, Pa.) was dissolved in 5 ml of CREMOPHOR™ (polyethoxylated castor oil):ethanol in phosphate buffered saline (PBS), to produce a working solution of 20 ug/ml. 250 ul (5 ug total) of HBs antigen was injected in Treatment Group C. The experiments were carried out as follows:
Tumor sizes were measured in three dimensions using Vernier calipers and tumor volume was computed assuming a spherical geometry with radius equal to one-half the average tumor dimension: TV (mm^3)=d^2×D/2. Tumors were measured two times a week and mice were monitored routinely to evaluate the effects of treatment.
In addition, serum AFP levels were monitored; AFP is an accepted tumor marker of HCC.

[6] = test system: EAE mice; assay: EAE in C57BL/6 mice treated weekly with AHR-ligand nanoparticles; format: in vivo; details: weekly from day 0, 45 femtomoles of nanoparticles, FIG. 7
Method: FIG. 7 is a line graph showing modulation of EAE by AHR-ligand nanoparticles. EAE was induced in B6 mice (n=5), the mice were treated with nanoparticles weekly starting from day 0, and the animals were followed for signs of EAE.
To investigate the in vivo functionality of AHR-ligand loaded nanoparticles EAE was induced on naïve C57BL/6 mice and treated them, starting at day 0, weekly with 45 femtomoles of nanoparticles.

[7] = test system: zebrafish embryos; assay: zFoxp3 and IL-17 expression in developing zebrafish embryos; format: in vivo, zebrafish (Danio rerio); details: treatment of developing zebrafish embryos
Excerpt: FIG. 4D is a bar graph showing the effect of a specific morpholino antisense oligonucleotide against Foxp3 on IL-17 expression in zebrafish.
Zebrafish eggs were collected within 1 hr of spawning, and purified plasmids or morpholino antisense oligonucleotides were microinjected with a fine glass needle connected to an automatic injector. A morpholino oligonucleotide designed to block the translation of zFoxp3 (5′-[…]-3′) and a 5 bases mismatch control oligonucleotide (5′-GTcTTCgAGTAcCATTAAcAAGgAT-3′) were designed and synthesized by Gene Tools (Philomath, Oreg.). Each morpholino nucleotide was injected into the yolk of embryos at one to four cell stages.

[8] = molecular target: T1, AHR (Homo sapiens, UniProt P35869); assay: AHR reporter luciferase construct in HEK 293 cells (dual luciferase assay); format: cell-based; details: different concentrations, normalised to Tk-Renilla, FIG. 8
T1 construct: endogenous in cells
T1 sequence (P35869 11-848): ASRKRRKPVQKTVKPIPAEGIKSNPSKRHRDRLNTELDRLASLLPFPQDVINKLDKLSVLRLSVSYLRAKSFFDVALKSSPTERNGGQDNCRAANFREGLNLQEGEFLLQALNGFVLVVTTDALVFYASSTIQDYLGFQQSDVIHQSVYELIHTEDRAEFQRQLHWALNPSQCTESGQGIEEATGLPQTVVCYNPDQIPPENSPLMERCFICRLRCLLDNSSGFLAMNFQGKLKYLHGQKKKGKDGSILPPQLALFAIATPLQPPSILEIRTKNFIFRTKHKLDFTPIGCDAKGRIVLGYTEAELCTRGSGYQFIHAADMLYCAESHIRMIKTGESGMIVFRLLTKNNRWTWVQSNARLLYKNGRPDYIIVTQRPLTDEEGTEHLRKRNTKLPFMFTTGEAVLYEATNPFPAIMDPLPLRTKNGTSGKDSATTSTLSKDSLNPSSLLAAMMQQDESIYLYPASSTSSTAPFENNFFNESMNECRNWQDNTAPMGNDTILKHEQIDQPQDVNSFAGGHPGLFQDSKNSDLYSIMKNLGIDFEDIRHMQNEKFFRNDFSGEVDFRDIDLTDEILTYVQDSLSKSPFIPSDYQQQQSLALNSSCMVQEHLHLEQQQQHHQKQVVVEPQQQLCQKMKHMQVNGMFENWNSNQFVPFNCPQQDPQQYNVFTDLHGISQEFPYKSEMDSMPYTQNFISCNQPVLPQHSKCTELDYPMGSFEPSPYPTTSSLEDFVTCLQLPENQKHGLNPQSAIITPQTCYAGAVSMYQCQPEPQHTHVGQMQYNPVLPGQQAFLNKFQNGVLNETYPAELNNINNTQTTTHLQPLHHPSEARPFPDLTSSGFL
Method: FIG. 8 is a bar graph showing fluorescence in 293 cells transfected with an AHR reporter luciferase construct and a TK-Renilla Luciferase construct for normalization purposes. The cells were incubated with different concentrations of the AHR ligand TCDD and activation of the AHR reporter was followed by monitoring fluorescence from the luciferase.
A construct coding for Foxp3 fused to Renilla luciferase (Ren) was created to provide a simple assay to identify compounds that increase expression of AHR (and thus increase luciferase expression and fluorescence as compared to a control) or that decrease expression of AHR (and thus decrease luciferase expression and fluorescence as compared to a control). HEK 293 cells were transfected as described (Bettelli et al., Proc Natl Acad Sci USA 102, 5138-5143 (2005)) with the AHR reporter luciferase construct and a TK-Renilla Luciferase construct for normalization purposes.
The cells were incubated with different concentrations of the AHR ligand
TCDD and activation of the AHR reporter was assayed using the dual luciferase assay kit ([…].). Tk-Renilla was used for standardization.

O=c1cc(-c2ccccc2)oc2ccc3ccccc3c12 [bNF, beta-naphthoflavone]
T cell differentiation into TH17 cells (IL-17 production by real time PCR) [1]: same effect

Oc1ccc(C=Cc2cc(O)cc(O)c2)cc1 [resveratrol]
effect on FICZ synergism in TH17 differentiation ([2]; AHR antagonist added, FIG. 1I): blocked

O=Cc1c2c(cc3c1=Nc1ccccc1-3)=Nc1ccccc1-2 [FICZ, 6-formylindolo[3,2-b]carbazole]
differentiation of Treg triggered by TGFβ1 [3]: interfered with the differentiation of Treg | expression levels of the TH17 transcription factor RORγt ([2]; FICZ alone, four days, FIG. 1E): did not significantly upregulate | TH17 differentiation in vitro (IL-17+ T cells, IL-17, IL-21, IL-22 levels) ([2]; with TGFβ1, IL-6 and IL-23, four days, FIGS. 1F-1H): synergized with TGFβ1, IL-6 and IL-23 to drive TH17 differentiation | Mean day of onset (Mean ± SD) ([4]; EAE mice): 13.3 ± 1.5 | Mean maximum score (mean ± SD) ([4]; EAE mice): 2.7 ± 1.8 | EAE development ([4]; mice, single dose of 1 μg/mouse, FIG. 2A): significant worsening of EAE; also recorded: worsens EAE | frequency of CD4+Foxp3+ Treg ([4]; splenocytes from treated EAE mice, FIG. 2E): decrease in the frequency | frequencies of IL-17+ CD4+ and CD4+IFNγ+ T cells ([4]; splenocytes from treated EAE mice, FIGS. 2C, 2D): increased frequencies | secretion of IL-17 and IFNγ ([4]; splenocytes from treated mice, in vitro stimulation with MOG35-55, FIG. 2B): increased secretion | tumor growth (tumor volume) ([5]; IP twice a week, caliper measurement): suppressed tumor growth | tumor growth as measured by serum AFP levels ([5]; seven and 14 days after treatment initiation, FIGS. 3A, 3B): significantly suppresses tumor growth | EAE development [6]: worsened the disease

Clc1cc2c(cc1Cl)Oc1cc(Cl)c(Cl)cc1O2 [TCDD, 2,3,7,8-tetrachlorodibenzo-p-dioxin]
IL-17 expression [7]: down regulation | zFoxp3 expression [7]: dose-dependent increase | EAE development [6]: complete suppression of EAE | expression of the AHR reporter [8]: dose-dependent increases
